According to publication PMC6277767, “Broad and Region-Specific Impacts of the Synthetic Cannabinoid CP 55,940 in Adolescent and Adult Female Mouse Brains” (Frontiers in Molecular Neuroscience, 2018):

Tested on: CD1 female mouse brain lipidome
Test: Brain-region lipid levels (HPLC/MS/MS lipidomics) 2 h after single i.p. 3 mg/kg CP 55,940 vs vehicle
Type: in vivo
Settings: cerebellum, 3 mg/kg CP 55,940
Procedure: The Bloomington Institutional Animal Care and Use Committee of Indiana University reviewed and approved the animal procedures. Female mice from the CD1 strain were utilized to match our study examining THC’s effects on the brain lipidome ([Leishman et al., 2018]). Mice were given a single i.p. injection of either 3 mg/kg CP or 1:1:18 cremophor:ethanol:saline vehicle (please refer to the section “3 mg/kg CP Is Relevant for Synthetic Cannabinoid Abuse and Has Stronger Effects on the Female Mouse Brain Lipidome During Adolescence” for a justification of dose and use of female mice). Three different age groups were given injections: PND 35 and PND 50 adolescents, and adult mice (PND 113). At least eight mice in each age group received CP and at least eight received vehicle. Matching the THC study time course ([Leishman et al., 2018]), mice were sacrificed via rapid decapitation 2 h after injection. Brains were immediately removed and flash-frozen in liquid nitrogen, and then stored at -80°C until dissections were performed. Brains were dissected on an ice-cold dissection plate into the following regions: STR, HIPP, CER, THAL, CTX, HYP, MID, and STEM. These abbreviations for these brain areas will be used exclusively when discussing the results generated by these specific dissections. Each dissected area was immediately placed in liquid nitrogen and then stored at -80°C until used for lipid extraction.
Tissue extracts were performed as previously described ([Bradshaw et al., 2006]; [Stuart et al., 2013]; [Raboune et al., 2014]; [Leishman et al., 2016a],[b], [2017], [2018]). First, samples were shock frozen in liquid nitrogen, weighed, and transferred to a centrifuge tube. The mass of the largest sample was multiplied by 50 to determine how many milliliters of HPLC-grade methanol (Fisher, Fair Lawn, NJ, United States) to add. Then, samples were spiked with 500 pmol deuterium-labeled NAGly (d8NAGly; Cayman Chemical, Ann Arbor, MI, United States). Samples were placed on ice in darkness for 2 h then individually homogenized and centrifuged at 19,000 × g for 20 min at 20°C. Supernatants were diluted with HPLC water (purified in house) to make a solution of 75% water, 25% supernatant. Lipids were partially purified on C18 solid phase extraction columns (Agilent, Palo Alto, CA, United States). A series of four elutions with 1.5 mL of 60%, 75%, 85%, and 100% methanol were collected ([Stuart et al., 2013]; [Leishman et al., 2016a],[b], [2018]).
As previously described ([Bradshaw et al., 2006]; [Tan et al., 2006]; [Smoum et al., 2010]; [Stuart et al., 2013]; [Tortoriello et al., 2013]; [Raboune et al., 2014]; [Leishman et al., 2016a],[b], [2017], [2018]), samples were analyzed using an Applied Biosystems API 3000 triple quadrupole mass spectrometer with electrospray ionization (Foster City, CA, United States). Using an Agilent XDB-C18 reversed phase analytical column and optimized mobile phase gradients, 20 μL from each elution were chromatographed. Two Shimadzu 10ADvp pumps (Columbia, MD, United States) provided the pressure for gradient elution. Mobile phase A: 20% methanol, 80% water (v/v) and 1 mM ammonium acetate (Sigma, St. Louis, MO, United States). Mobile phase B: 100% methanol, 1 mM ammonium acetate. Every method run began with 0% mobile phase B, reached 100% mobile phase B flowing at 0.2 mL/min, and gradually returned to 0% mobile phase B.
This screening library will be referred to as the lipidome when discussing data from this study. HPLC/MS/MS data were analyzed using Analyst software (Applied Biosystems) ([Bradshaw et al., 2006]; [Tan et al., 2006]; [Stuart et al., 2013]; [Tortoriello et al., 2013]; [Raboune et al., 2014]; [Leishman et al., 2016a],[b], [2017], [2018]). Chromatograms (Supplementary Figure 3) were generated by determining the retention time of analytes from the analytical column with a [M-1] or [M+1] parent peak and a fragmentation peak corresponding to the programmed values. […]

CCCCCCC(C)(C)c1ccc([C@@H]2C[C@H](O)CC[C@H]2CCCO)c(O)c1 [CP 55,940]
PGE2: Magnitude (x Veh level) (adult): 0.70 x Veh level | PGF2α: Direction (relative to Veh) (adult): ↓ | PGF2α: Magnitude (x Veh level) (adult): 0.67 x Veh level | phosphoLEA: Direction (relative to Veh) (adult): ↓ | phosphoLEA: Magnitude (x Veh level) (adult): 0.71 x Veh level | 2-arachidonoyl glycerol: Direction (relative to Veh) (PND 35): ↓ | 2-arachidonoyl glycerol: Magnitude (x Veh level) (PND 35): 0.80 x Veh level | 2-linoleoyl glycerol: Direction (relative to Veh) (PND 35): ↓ | 2-linoleoyl glycerol: Magnitude (x Veh level) (PND 35): 0.75 x Veh level | 6-ketoPGF1α: Magnitude (x Veh level) (PND 35): 0.61 x Veh level | Arachidonic acid: Direction (relative to Veh) (PND 35): ↓ | Arachidonic acid: Magnitude (x Veh level) (PND 35): 0.92 x Veh level | N-arachidonoyl GABA: Direction (relative to Veh) (PND 35): ↓ | N-arachidonoyl GABA: Magnitude (x Veh level) (PND 35): 0.72 x Veh level | N-arachidonoyl alanine: Direction (relative to Veh) (PND 35): ↓ | N-arachidonoyl alanine: Magnitude (x Veh level) (PND 35): 0.71 x Veh level | N-arachidonoyl glycine: Direction (relative to Veh) (PND 35): ↓ | N-arachidonoyl glycine: Magnitude (x Veh level) (PND 35): 0.89 x Veh level | N-arachidonoyl methionine: Direction (relative to Veh) (PND 35): ↓ | N-arachidonoyl methionine: Magnitude (x Veh level) (PND 35): 0.63 x Veh level | N-arachidonoyl serine: Direction (relative to Veh) (PND 35): ↓ | N-arachidonoyl serine: Magnitude (x Veh level) (PND 35): 0.74 x Veh level | N-arachidonoyl taurine: Direction (relative to Veh) (PND 35): ↓ | N-arachidonoyl taurine: Magnitude (x Veh level) (PND 35): 0.87 x Veh level | N-arachidonoyl tyrosine: Direction (relative to Veh) (PND 35): ↓ | N-arachidonoyl tyrosine: Magnitude (x Veh level) (PND 35): 0.70 x Veh level | N-docosahexaenoyl GABA: Direction (relative to Veh) (PND 35): ↓ | N-docosahexaenoyl GABA: Magnitude (x Veh level) (PND 35): 0.81 x Veh level | N-docosahexaenoyl alanine: Direction (relative to Veh) (PND 35): ↓ | N-docosahexaenoyl alanine: Magnitude (x Veh level) (PND 35): 0.72 x Veh level | N-docosahexaenoyl glycine: Direction (relative to Veh) (PND 35): ↓ | N-docosahexaenoyl glycine: Magnitude (x Veh level) (PND 35): 0.92 x Veh level | N-docosahexaenoyl leucine: Direction (relative to Veh) (PND 35): ↑ | N-docosahexaenoyl leucine: Magnitude (x Veh level) (PND 35): 1.44 x Veh level | N-docosahexaenoyl serine: Direction (relative to Veh) (PND 35): ↓ | N-docosahexaenoyl serine: Magnitude (x Veh level) (PND 35): 0.72 x Veh level | N-docosahexaenoyl tyrosine: Direction (relative to Veh) (PND 35): ↓ | N-docosahexaenoyl tyrosine: Magnitude (x Veh level) (PND 35): 0.84 x Veh level | N-linoleoyl glycine: Direction (relative to Veh) (PND 35): ↓ | N-linoleoyl glycine: Magnitude (x Veh level) (PND 35): 0.89 x Veh level | N-linoleoyl leucine: Direction (relative to Veh) (PND 35): ↑ | N-linoleoyl leucine: Magnitude (x Veh level) (PND 35): 1.29 x Veh level | N-linoleoyl phenylalanine: Direction (relative to Veh) (PND 35): ↑ | N-linoleoyl phenylalanine: Magnitude (x Veh level) (PND 35): 1.28 x Veh level | N-oleoyl GABA: Direction (relative to Veh) (PND 35): ↓ | N-oleoyl GABA: Magnitude (x Veh level) (PND 35): 0.83 x Veh level | N-oleoyl ethanolamine: Direction (relative to Veh) (PND 35): ↓ | N-oleoyl ethanolamine: Magnitude (x Veh level) (PND 35): 0.81 x Veh level | N-oleoyl leucine: Direction (relative to Veh) (PND 35): ↑ | N-oleoyl leucine: Magnitude (x Veh level) (PND 35): 1.25 x Veh level | N-oleoyl phenylalanine: Direction (relative to Veh) (PND 35): ↑
